Source: ChEMBL document CHEMBL5375956, “Discovery of Pyrazolo[1,5-a]pyrimidine Derivative as a Novel and Selective ALKBH5 Inhibitor for the Treatment of AML” (J Med Chem, 2023)
The source made the active and inactive calls. No cut-off for these calls is given here.

Columns and labels:
RNA demethylase ALKBH5 [1] = target: T1, RNA demethylase ALKBH5 (Homo sapiens, UniProt Q6P6C2); experiment: Inhibition of ALKBH5 (66 to 292 residues)(unknown origin) expressed in Escherichia coli BL21(DE3) using 5'-TAGACATTGCCATTCTCGATAGG (m6A)-TC CGGTCAAACCTAGAC GAATTCCA-3' as substrate incubated for 2 hrs by restriction endonuclease digestion assay; conditions: dose 25-200 µM
[2] = Metabolic stability in rat plasma assessed as half life measured upto 240 mins by LC-MS/MS analysis; assay type: ADME, cell-free
[3] = Metabolic stability in human liver microsomes assessed as clearance measured upto 240 mins by LC-MS/MS analysis; assay type: ADME, Microsome; conditions: read-out: CLH
[4] = AUC (0 to infinity) in Sprague-Dawley rat at 2 mg/kg, iv measured for 1 to 1440 mins by LC-MS/MS analysis; assay type: ADME, organism-based; conditions: in vivo
[5] = Metabolic stability in human liver microsomes assessed as half life measured upto 240 mins by LC-MS/MS analysis; assay type: ADME, Microsome
MOLM-13 [6] = experiment: Induction of apoptosis in human MOLM-13 cells assessed as late apoptosis cells at 10 uM incubated for 48 hrs by Annexin V-FITC/PI staining based flow cytometry (reference value: 6.49 %); assay type: functional
RNA demethylase ALKBH5 [7] = target: T1, RNA demethylase ALKBH5; experiment: Inhibition of ALKBH5 in human MOLM-13 cells assessed as increase in m6A RNA level by colorimetric assay; assay type: cell-based; conditions: dose 10-20 µM
[8] = Oral bioavailability in Sprague-Dawley rat at 10 mg/kg measured for 1 to 1440 mins by LC-MS/MS analysis; assay type: ADME, organism-based; conditions: in vivo, time 1-1440 min
MV4-11 [9] = experiment: Induction of apoptosis in human MV4-11 cells assessed as viable cells at 10 uM incubated for 48 hrs by Annexin V-FITC/PI staining based flow cytometry (reference value: 89.8 %); assay type: functional; conditions: read-out: Activity
RNA demethylase ALKBH5 [10] = target: RNA demethylase ALKBH5 (Homo sapiens, UniProt Q6P6C2, K132A); experiment: Binding affinity to NT-647-NHS fluorescent dye-labeled ALKBH5 K132A mutant (unknown origin) expressed in Escherichia coli BL21(DE3) using m6A-ssDNA as substrate assessed as dissociation constant incubated for 15 mins by MST assay
MV4-11 [11] = experiment: Antitumor activity against human MV4-11 cells xenografted in nude mouse assessed as tumor growth inhibition at 10 mg/kg, ip treated every day for 14 days relative to control; assay type: functional; conditions: MV4-11, 336 h, time 14 day, read-out: TGI
RNA demethylase ALKBH5 [12] = target: T1, RNA demethylase ALKBH5; experiment: Competitive binding affinity to ALKBH5 (66 to 292 residues)(unknown origin) expressed in Escherichia coli BL21(DE3) using 5'-ATTGTCA(m6A)CAGCAGA-FAM-3' as substrate assessed as dissociation constant incubated for 30 mins in presence of 2-OG by FP assay
MV4-11 [13] = experiment: Induction of cell cycle arrest at […] phase in human MV4-11 cells at 20 uM incubated for 48 hrs by […]PI staining based flow cytometry; assay type: functional
RNA demethylase ALKBH5 [14] = target: RNA demethylase ALKBH5 (Homo sapiens, UniProt Q6P6C2, R130A); experiment: Binding affinity to NT-647-NHS fluorescent dye-labeled ALKBH5 R130A mutant (unknown origin) expressed in Escherichia coli BL21(DE3) using m6A-ssDNA as substrate assessed as dissociation constant incubated for 15 mins by MST assay
MV4-11 [15] = experiment: Downregulation of c-Myc level in human MV4-11 cells upto 10 uM incubated for 48 hrs by Western blot analysis; assay type: functional, cell-based
[16] = Toxicity in nude mouse xenografted with human MV4-11 cells assessed as heart damage at 10 to 40 mg/kg, ip treated every day for 14 days by H and E staining based analysis; assay type: organism-based; conditions: in vivo, 336 h, dose 10-40 mg/kg, time 14 day
[17] = Metabolic stability in rat liver microsomes assessed as half life measured upto 240 mins by LC-MS/MS analysis; assay type: ADME, Microsome
[18] = Toxicity in nude mouse xenografted with human MV4-11 cells assessed as kidney weight change at 10 to 40 mg/kg, ip treated every day for 14 days; assay type: organism-based; conditions: in vivo, 336 h, dose 10-40 mg/kg, time 14 day
[19] = MRT in Sprague-Dawley rat at 2 mg/kg, iv measured for 1 to 1440 mins by LC-MS/MS analysis; assay type: ADME, organism-based; conditions: in vivo, time 1-1440 min
[20] = Cmax in Sprague-Dawley rat at 2 mg/kg, iv measured for 1 to 1440 mins by LC-MS/MS analysis; assay type: ADME, organism-based; conditions: in vivo
MOLM-13 [21] = experiment: Induction of apoptosis in human MOLM-13 cells assessed as necrotic cells at 10 uM incubated for 48 hrs by Annexin V-FITC/PI staining based flow cytometry (reference value: 1.00 %); assay type: functional
MOLM-13 [22] = experiment: Induction of apoptosis in human MOLM-13 cells assessed as viable cells at 10 uM incubated for 48 hrs by Annexin V-FITC/PI staining based flow cytometry (reference value: 89.8 %); assay type: functional; conditions: read-out: Activity
RNA demethylase ALKBH5 [23] = target: T1, RNA demethylase ALKBH5; experiment: Inhibition of ALKBH5 (66 to 292 residues)(unknown origin) expressed in Escherichia coli BL21(DE3) using 5'-TAGACATTGCCATTCTCGATAGG(m6A)-TCCGGTCAAACCTAGACGAATTCCA-3' as substrate upto 100 uM incubated for 2 hrs in presence of 2-OG by restriction endonuclease digestion assay
[24] = Toxicity in nude mouse xenografted with human MV4-11 cells assessed as lung damage at 10 to 40 mg/kg, ip treated every day for 14 days by H and E staining based analysis; assay type: organism-based; conditions: in vivo, 336 h, dose 10-40 mg/kg, time 14 day
RNA demethylase ALKBH5 [25] = target: T1, RNA demethylase ALKBH5; experiment: Inhibition of ALKBH5 in human MOLM-13 cells assessed as increase in m6A RNA level by dot blot assay; assay type: cell-based; conditions: dose <= 20.0 µM
[26] = Toxicity in nude mouse xenografted with human MV4-11 cells assessed as spleen weight change at 10 to 40 mg/kg, ip treated every day for 14 days; assay type: organism-based; conditions: in vivo, 336 h, dose 10-40 mg/kg, time 14 day
MV4-11 [27] = experiment: Induction of apoptosis in human MV4-11 cells assessed as necrotic cells at 5 uM incubated for 48 hrs by Annexin V-FITC/PI staining based flow cytometry (reference value: 1.81 %); assay type: functional
RNA demethylase ALKBH5 [28] = target: T1, RNA demethylase ALKBH5; experiment: Inhibition of ALKBH5 (66 to 292 residues)(unknown origin) expressed in Escherichia coli BL21(DE3) using 5'-ATTGTCA(m6A)CAGCAGA-FAM-3' as substrate incubated for 30 mins in presence of 0.2 uM of 2-OG by FP based competitive binding assay
[29] = Toxicity in nude mouse xenografted with human MV4-11 cells assessed as body weight change at 10 to 40 mg/kg, ip treated every day for 14 days; assay type: organism-based; conditions: in vivo, 336 h, dose 10-40 mg/kg, time 14 day
[30] = Tmax in Sprague-Dawley rat at 10 mg/kg, po measured for 1 to 1440 mins by LC-MS/MS analysis; assay type: ADME, organism-based; conditions: in vivo, time 1-1440 min
MOLM-13 [31] = experiment: Induction of cell cycle arrest at […] phase in human MOLM-13 cells at 20 uM incubated for 48 hrs by […]PI staining based flow cytometry; assay type: functional
[32] = Toxicity in nude mouse xenografted with human MV4-11 cells assessed as lung weight change at 10 to 40 mg/kg, ip treated every day for 14 days; assay type: organism-based; conditions: in vivo, 336 h, dose 10-40 mg/kg, time 14 day

Question: For `O=C(OCc1ccc(C(F)(F)F)cc1)c1ccc(-c2cc3ncc(C(=O)c4c(O)ccc([N+](=O)[O-])c4O)cn3n2)cc1`, which inhibition (RNA demethylase ALKBH5 [1]) is on record?
Answer: The inhibition was “Dose-Dependent Effect”.

Question: What about the half-life [2] of the same compound?
Answer: Its half-life is 4.18 h.

Question: And the microsomal CLint [3]?
Answer: Its microsomal CLint is 3.2 µL/min/mg.

Question: And the AUC(0-inf) [4]?
Answer: The AUC(0-inf) was 6740 ng·h/mL.

Question: And the half-life [5]?
Answer: The half-life was 7.17 h.

Question: And the Activity (MOLM-13 [6])?
Answer: The Activity was 31.5%.

Question: What about the inhibition (RNA demethylase ALKBH5 [7]) of the same compound?
Answer: The inhibition was “Dose-Dependent Effect”.

Question: And the bioavailability [8]?
Answer: The bioavailability was 17.3%.

Question: What about the viability at 10 µM (MV4-11 [9]) of the same compound?
Answer: The viability at 10 µM was 39.9%.

Question: What about the Kd (RNA demethylase ALKBH5 [10]) of the same compound?
Answer: Its Kd is 53 µM.

Question: And the inhibition in vivo at 10 mg/kg (MV4-11 [11])?
Answer: Its inhibition in vivo at 10 mg/kg is 56.3%.

Question: What about the Kd (RNA demethylase ALKBH5 [12]) of the same compound?
Answer: Its Kd is roughly 0.0657 µM.

Question: What about the Activity (MV4-11 [13]) of the same compound?
Answer: The Activity was “Active”.

Question: And the Kd (RNA demethylase ALKBH5 [14])?
Answer: The Kd was 373 µM.

Question: And the Activity (MV4-11 [15])?
Answer: The Activity was “Active”.

Question: What about the Activity [16] of the same compound?
Answer: Its Activity is “Non-Toxic”.

Question: And the half-life [17]?
Answer: Its half-life is 0.23 h.

Question: What about the Activity [18] of the same compound?
Answer: Its Activity is “Non-Toxic”.

Question: And the MRT [19]?
Answer: Its MRT is 1.3 h.

Question: And the Cmax [20]?
Answer: Its Cmax is 13400 ng/mL.

Question: And the Activity (MOLM-13 [21])?
Answer: Its Activity is 4.14%.

Question: What about the viability at 10 µM (MOLM-13 [22]) of the same compound?
Answer: The viability at 10 µM was 61.5%.

Question: What about the inhibition (RNA demethylase ALKBH5 [23]) of the same compound?
Answer: Its inhibition is “Active”.

Question: And the Activity [24]?
Answer: The Activity was “Non-Toxic”.

Question: What about the inhibition (RNA demethylase ALKBH5 [25]) of the same compound?
Answer: Its inhibition is “Dose-Dependent Effect”.

Question: And the Activity [26]?
Answer: The Activity was “Non-Toxic”.

Question: And the Activity (MV4-11 [27])?
Answer: The Activity was 3.62%.

Question: And the IC50 (RNA demethylase ALKBH5 [28])?
Answer: The IC50 was 4.89 µM.

Question: And the Activity [29]?
Answer: The Activity was “Non-Toxic”.

Question: What about the Tmax [30] of the same compound?
Answer: The Tmax was 0.5 h.

Question: What about the Activity (MOLM-13 [31]) of the same compound?
Answer: Its Activity is “Active”.

Question: What about the Activity [32] of the same compound?
Answer: The Activity was “Non-Toxic”.
